Test results from ChEMBL document CHEMBL5500339, “4-Hydroxy-2-pyridone derivatives with antitumor activity produced by mangrove endophytic fungus Talaromyces sp. CY-3” (Eur J Med Chem, 2024).
Activity calls are given as the source filed them. The rule behind the calls is not given here.

How the values were obtained:
NCI-H1703 [1] = assay: Inhibition of colony formation in human NCI-H1703 cells at 5 uM incubated for 7 days by crystal violet staining analysis; assay type: functional, cell-based; conditions: time 7.0 day
A549 [2] = assay: Induction of cell cycle arrest in human A549 cells assessed as accumulation of cells at G2/M phase at 10 uM incubated for 24 hrs by flow cytometric analysis (reference value: 17.2 %); assay type: functional
A549 [3] = assay: Induction of cell cycle arrest in human A549 cells assessed as downregulation of total Rb protein level at 20 uM incubated for 24 hrs by Western blotting analysis; assay type: functional, cell-based
A549 [4] = assay: Induction of cell cycle arrest in human A549 cells assessed as accumulation of cells at S phase at 10 uM incubated for 24 hrs by flow cytometric analysis (reference value: 31.31 %); assay type: functional
A549 [5] = assay: Induction of cell cycle arrest in human A549 cells assessed as downregulation of CDK6 protein expression incubated for 24 hrs by Western blotting analysis; assay type: functional, cell-based
NCI-H1703 [6] = assay: Induction of cell cycle arrest in human NCI-H1703 cells assessed as downregulation of Rb phosphorylation at Ser807/811 residue at 10 uM incubated for 24 hrs by Western blotting analysis; assay type: functional, cell-based
NCI-H1703 [7] = assay: Induction of cell cycle arrest in human NCI-H1703 cells assessed as upregulation of p21 protein expression incubated for 24 hrs by Western blotting analysis; assay type: functional, cell-based
NCI-H1703 [8] = assay: Induction of cell cycle arrest in human NCI-H1703 cells assessed as accumulation of cells at S phase at 10 uM incubated for 24 hrs by flow cytometric analysis (reference value: 28.06 %); assay type: functional
MDA-MB-435 = assay: Cytotoxicity against human MDA-MB-435 cells assessed as reduction in cell viability incubated for 48 hrs by MTT assay; assay type: functional, cell-based; conditions: MDA-MB-435, 48 h
MDA-MB-231 = assay: Cytotoxicity against human MDA-MB-231 cells assessed as reduction in cell viability incubated for 48 hrs by MTT assay; assay type: functional, cell-based; conditions: MDA-MB-231, 48 h
A549 [9] = assay: Induction of cell cycle arrest in human A549 cells assessed as accumulation of cells at S phase at 20 uM incubated for 24 hrs by flow cytometric analysis (reference value: 31.31 %); assay type: functional
A549 [10] = assay: Induction of cell cycle arrest in human A549 cells assessed as downregulation of CDK4 protein expression incubated for 24 hrs by Western blotting analysis; assay type: functional, cell-based
A549 [11] = assay: Induction of cell cycle arrest in human A549 cells assessed as downregulation of Rb phosphorylation at Ser807/811 residue at 10 uM incubated for 24 hrs by Western blotting analysis; assay type: functional, cell-based
[12] = Cytotoxicity against mouse Lewis lung carcinoma cell line assessed as reduction in cell viability incubated for 48 hrs by MTT assay; assay type: functional, cell-based
B16-F10 = assay: Cytotoxicity against mouse B16-F10 cells assessed as reduction in cell viability incubated for 48 hrs by MTT assay; assay type: functional, cell-based; conditions: B16-F10, 48 h
NCI-H1703 [13] = assay: Induction of cell cycle arrest in human NCI-H1703 cells assessed as accumulation of cells at G1/G0 phase at 5 uM incubated for 24 hrs by flow cytometric analysis (reference value: 42.06 %); assay type: functional
HCT-116 = assay: Cytotoxicity against human HCT-116 cells assessed as reduction in cell viability incubated for 48 hrs by MTT assay; assay type: functional, cell-based; conditions: HCT-116, 48 h
4T1 = assay: Cytotoxicity against mouse 4T1 cells assessed as reduction in cell viability incubated for 48 hrs by MTT assay; assay type: functional, cell-based; conditions: 4T1, 48 h
A549 [14] = assay: Antiproliferative activity against human A549 cells assessed as inhibition of cell growth incubated for 18 hrs by Edu incorporation based fluorescence microscopic analysis; assay type: functional
NCI-H1703 [15] = assay: Induction of cell cycle arrest in human NCI-H1703 cells assessed as downregulation of total Rb protein level at 5 uM incubated for 24 hrs by Western blotting analysis; assay type: functional, cell-based
A549 [16] = assay: Inhibition of colony formation in human A549 cells at 20 uM incubated for 7 days by crystal violet staining analysis; assay type: functional, cell-based; conditions: time 7.0 day
A549 [17] = assay: Induction of cell cycle arrest in human A549 cells assessed as downregulation of total Rb protein level at 10 uM incubated for 24 hrs by Western blotting analysis; assay type: functional, cell-based
A549 [18] = assay: Induction of cell cycle arrest in human A549 cells assessed as upregulation of p21 protein expression incubated for 24 hrs by Western blotting analysis; assay type: functional, cell-based
NCI-H1703 [19] = assay: Inhibition of colony formation in human NCI-H1703 cells at 2.5 uM incubated for 7 days by crystal violet staining analysis; assay type: functional, cell-based; conditions: time 7.0 day
NCI-H1703 [20] = assay: Induction of cell cycle arrest in human NCI-H1703 cells assessed as downregulation of CDK4 protein expression incubated for 24 hrs by Western blotting analysis; assay type: functional, cell-based
A549 [21] = assay: Induction of cell cycle arrest in human A549 cells assessed as accumulation of cells at G1/G0 phase at 20 uM incubated for 24 hrs by flow cytometric analysis (reference value: 51.49 %); assay type: functional
A549 [22] = assay: Inhibition of colony formation in human A549 cells at 10 uM incubated for 7 days by crystal violet staining analysis; assay type: functional, cell-based; conditions: time 7.0 day
NCI-H1703 [23] = assay: Induction of cell cycle arrest in human NCI-H1703 cells assessed as accumulation of cells at G2/M phase at 10 uM incubated for 24 hrs by flow cytometric analysis (reference value: 29.88 %); assay type: functional
CT26 = assay: Cytotoxicity against mouse CT26 cells assessed as reduction in cell viability incubated for 48 hrs by MTT assay; assay type: functional, cell-based; conditions: CT26, 48 h
NCI-H1703 [24] = assay: Antiproliferative activity against human NCI-H1703 cells assessed as inhibition of cell growth at 10 uM incubated for 24 hrs by MTT assay; assay type: functional, cell-based
NCI-H1703 [25] = assay: Antiproliferative activity against human NCI-H1703 cells assessed as inhibition of cell growth incubated for 18 hrs by Edu incorporation based fluorescence microscopic analysis; assay type: functional
MC-38 = assay: Cytotoxicity against mouse MC38 cells assessed as reduction in cell viability incubated for 48 hrs by MTT assay; assay type: functional, cell-based; conditions: MC-38, 48 h
A549 [26] = assay: Induction of cell cycle arrest in human A549 cells assessed as upregulation of p53 protein expression incubated for 24 hrs by Western blotting analysis; assay type: functional, cell-based
NCI-H1703 [27] = assay: Induction of cell cycle arrest in human NCI-H1703 cells assessed as downregulation of Rb phosphorylation at Ser807/811 residue at 5 uM incubated for 24 hrs by Western blotting analysis; assay type: functional, cell-based
A549 [28] = assay: Induction of cell cycle arrest in human A549 cells assessed as downregulation of Rb phosphorylation at Ser807/811 residue at 20 uM incubated for 24 hrs by Western blotting analysis; assay type: functional, cell-based
PC-3 = assay: Cytotoxicity against human PC-3 cells assessed as reduction in cell viability incubated for 48 hrs by MTT assay; assay type: functional, cell-based; conditions: PC-3, 48 h
NCI-H1703 [29] = assay: Induction of cell cycle arrest in human NCI-H1703 cells assessed as downregulation of CDK6 protein expression incubated for 24 hrs by Western blotting analysis; assay type: functional, cell-based
SNB-19 = assay: Cytotoxicity against human SNB-19 cells assessed as reduction in cell viability incubated for 48 hrs by MTT assay; assay type: functional, cell-based; conditions: SNB-19, 48 h
NCI-H1703 [30] = assay: Induction of cell cycle arrest in human NCI-H1703 cells assessed as downregulation of total Rb protein level at 10 uM incubated for 24 hrs by Western blotting analysis; assay type: functional, cell-based

C/C=C/[C@@H]1[C@H]2C[C@@H](C)CC[C@@H]2C(C)=C[C@H]1C(=O)c1c(O)c(-c2ccc(O)cc2)c[nH]c1=O [ILICICOLIN H]
inhibition (NCI-H1703 [1]): Active | Activity (A549 [2]): 24% | Activity (A549 [3]): inactive | Activity (A549 [4]): 10.84% | Activity (A549 [5]): Dose-Dependent Effect | Activity (NCI-H1703 [6]): Active | Activity (NCI-H1703 [7]): Dose-Dependent Effect | Activity (NCI-H1703 [8]): 24.49% | IC50 (MDA-MB-435): 6.34 µM | IC50 (MDA-MB-231): 9.98 µM | Activity (A549 [9]): 14.95% | Activity (A549 [10]): Dose-Dependent Effect | Activity (A549 [11]): Active | IC50 [12]: 5.78 µM | IC50 (B16-F10): 21.6 µM | Activity (NCI-H1703 [13]): 50.13% | IC50 (HCT-116): 10.8 µM | IC50 (4T1): 13.8 µM | Activity (A549 [14]): Dose-Dependent Effect | Activity (NCI-H1703 [15]): inactive | inhibition (A549 [16]): Active | Activity (A549 [17]): inactive | Activity (A549 [18]): Dose-Dependent Effect | inhibition (NCI-H1703 [19]): Active | Activity (NCI-H1703 [20]): Dose-Dependent Effect | Activity (A549 [21]): 72.12% | inhibition (A549 [22]): Active | Activity (NCI-H1703 [23]): 19.48% | IC50 (CT26): 19.5 µM | Activity (NCI-H1703 [24]): Active | Activity (NCI-H1703 [25]): Dose-Dependent Effect | IC50 (MC-38): 19.6 µM | Activity (A549 [26]): Dose-Dependent Effect | Activity (NCI-H1703 [27]): Active | Activity (A549 [28]): Active | IC50 (PC-3): > 50 µM | Activity (NCI-H1703 [29]): Dose-Dependent Effect | IC50 (SNB-19): 14.6 µM | Activity (NCI-H1703 [30]): inactive
